# Results published in patent US5081149A, “Antihepatopathic method” (Senju Pharmaceutical Co., Ltd., priority 1989, dated 1992).
# Columns and labels:
# blood coagulation = conditions: Kokai No. 63-8337 and Japanese Patent Applications Nos. 1-79956 and 1-183484; cited from earlier work
# [1] = tested on: acetaminophen-induced hepatopathy; test: Effects of DCE-GS on acetaminophen-induced hepatopathy in rats; format: in vivo, SD-strain male rats; conditions: for LDH (lactate dehydrogenase) / s-GOT / s-GPT / s-TG (serum triglyceride): 1 h before acetaminophen 300 mg/kg i.p., blood at 24 h, mean ± standard error (n = 6 to 8)
# Method: After 24 hours of fasting, SD-strain male rats weighing 180 g were orally given 200, 400 or 800 mg/kg of S-(α, β-dicarboxyethyl)glutathione (hereinafter referred to as "DCE-GS" for short). A control group was given physiological saline. An hour later, 300 mg/kg acetaminophen was intraperitoneally administered to each rat for causing hepatopathy. Twenty-four hours after acetaminophen administration,blood samples were collected from the rats under pentobarbital anesthesia via the abdominal aorta and subjected to blood biochemistry tests.
# platelet aggregation = conditions: Kokai No. 63-8337 and Japanese Patent Applications Nos. 1-79956 and 1-183484; cited from earlier work
# [2] = Kokai No. 63-8337 and Japanese Patent Applications Nos. 1-79956 and 1-183484; cited from earlier work
# [3] = 400 mg/kg oral, *p < 0.05 vs saline
# [4] = 800 mg/kg oral, *p < 0.05 vs saline
compound,measurement,setting,value
"N[C@@H](CCC(=O)N[C@@H](CSC(CC(=O)O)C(=O)O)C(=O)NCC(=O)O)C(=O)O (stereo partly drawn) [DCE-GS, S-(α, β-Dicarboxyethyl)glutathione]",blood coagulation inhibiting activity,blood coagulation,blood coagulation inhibiting
same,LDH (lactate dehydrogenase),[1]; 200 mg/kg oral,6029 ± 485 Wrobrewski units
same,s-GOT,[1]; 200 mg/kg oral,1221 ± 179 IU/liter
same,s-GPT,[1]; 200 mg/kg oral,499 ± 66 IU/liter
same,s-TG (serum triglyceride),[1]; 200 mg/kg oral,28.8 ± 5.0 mg/dL
same,s-TG (serum triglyceride),[1]; 400 mg/kg oral,36.1 ± 7.6 mg/dL
same,LDH (lactate dehydrogenase),[1]; [3],4873 ± 973 Wrobrewski units
same,s-GOT,[1]; [3],677 ± 219 IU/liter
same,s-GPT,[1]; [3],262 ± 89 IU/liter
same,LDH (lactate dehydrogenase),[1]; [4],3722 ± 595 Wrobrewski units
same,s-GOT,[1]; [4],438 ± 131 IU/liter
same,s-GPT,[1]; [4],133 ± 39 IU/liter
same,s-TG (serum triglyceride),[1]; [4],53.9 ± 10.4 mg/dL
same,"effect on acetaminophen-induced changes in s-GOT, s-GPT, s-LDH and s-TG","[1]; 200, 400 or 800 mg/kg oral","dose-dependently suppressed the increases in s-GOT, s-GPT and s-LDH as well as the decrease in s-TG"
same,platelet aggregation inhibiting activity,platelet aggregation,platelet aggregation inhibiting
same,antiinflammatory and/or antiallergic activity,[2],antiinflammatory and/or antiallergic activity
